Source: patent publication US4016042A, “Substrate for the quantitative determination of enzymes” (Pentapharm A.G., priority 1974, dated 1977)
Counter-ions that a name gives are not always drawn. Residues, ends and D or L forms follow the SMILES beside them. *: point of attachment. Hydrocinnamoyl = O=C(CCc1ccccc1)*; pNA = O=[N+]([O-])c1ccc(N*)cc1; Bz = O=C(c1ccccc1)*

Experiments:
Format in all cases: biochemical
trypsin = target: T1, trypsin (Bos taurus, UniProt P00760); experiment: Km and vmax determination with substrate (Lineweaver-Burk), trypsin; settings: NF units per 1 substrate unit
T1 sequence (P00760 24-246): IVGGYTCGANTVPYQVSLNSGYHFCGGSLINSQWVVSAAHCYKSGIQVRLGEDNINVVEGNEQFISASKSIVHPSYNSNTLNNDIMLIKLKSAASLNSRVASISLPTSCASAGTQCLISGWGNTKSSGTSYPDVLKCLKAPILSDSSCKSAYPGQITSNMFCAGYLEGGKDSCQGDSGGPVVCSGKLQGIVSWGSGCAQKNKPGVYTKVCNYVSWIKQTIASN
Protocol: (§1) As is evident from equation (2) constants Km and k3 determine the activity of the enzyme substrate for a given enzyme. For determining these constants the following procedure is followed:
(§2) The enzyme and the substrate are mixed in a buffer solution, and the reaction is followed spectrophotometrically for 2 to 30 minutes. The concentration of substrate [S] is varied, whereas the enzyme concentration [E] is kept constant. If the extinction (OD) (= optical density) is plotted in a co-ordinate system as a function of time, a curve is obtained the tangent of which (difference in extinction per minute, Δ OD/minute, from which the quantity in μmoles of pNA/min (v) can be calculated) at time zero corresponds to the ideal course of the hydrolysis. By means of this tangent the initial rate of the hydrolysis can be determined.
(§3) If 1/v is plotted against 1/[S], a Lineweaver-Burk diagram (cf. "Kurzes Lehrbuch der Biochemie" by P. KARSON, Georg Thieme-Verlag, Stuttgart, 1967, p. 70) is obtained from which vmax and Km can be determined graphically.
(§4) Km and k3 = vmax /E were determined with N^α-Bz-Pro-Phe-Arg-pNA^. HCl (i.e. the substrate prepared according to Example 1) for plasma kallikrein, trypsin, plasmin and thrombin.

thrombin = thrombin (Homo sapiens, UniProt P00734); experiment: Km and vmax determination with substrate (Lineweaver-Burk), thrombin; settings: NIH units per 1 substrate unit
Protocol: as §1, §2, §3, §4

plasmin [1] = target: T2, plasmin (Homo sapiens, UniProt P00747); experiment: Activity of human plasmin measured with the substrates at constant substrate and enzyme concentrations; settings: split product
Protocol: (§5) HCl, were used for the quantitative determination of various enzymes in blood plasma. The determination was carried out by taking advantage of the fact that the split product NH2 -R^2 formed by enzymatic hydrolysis of the substrate has a UV spectrum which differs from that of the substrate and is shifted toward higher wave lengths. Thus, N^α-Bz-Pro-Phe-Arg-pNA^.
(§6) The degree of the enzymatic hydrolysis of the substrate, which is proportional to the quantity of p-nitroaniline formed, can be easily determined by spectrophotometric measurement at 405 nm. […] The conditions are practically the same for the other substrates carrying a p-nitroanilino group as a chromogenic group. The spectrophotometric measurement was, therefore, carried out in all cases at 405 nm.

plasma kallikrein [2] = target: T3, plasma kallikrein (Homo sapiens, UniProt P03952); experiment: Activity of plasma kallikrein measured with the substrates at constant substrate and enzyme concentrations; settings: split product
Protocol: as §5, §6

plasma kallikrein [3] = target: T3, plasma kallikrein; experiment: Km and vmax determination with substrate (Lineweaver-Burk), plasma kallikrein; settings: common units per 1 substrate unit
Protocol: as §1, §2, §3, §4

[4] = target: T4, prothrombin activator from venom of the snake Echis carinatus (Echis carinatus, UniProt Q90495); experiment: Activity of prothrombin activator measured with substrates at a constant substrate concentration
T4 sequence (Q90495 191-616): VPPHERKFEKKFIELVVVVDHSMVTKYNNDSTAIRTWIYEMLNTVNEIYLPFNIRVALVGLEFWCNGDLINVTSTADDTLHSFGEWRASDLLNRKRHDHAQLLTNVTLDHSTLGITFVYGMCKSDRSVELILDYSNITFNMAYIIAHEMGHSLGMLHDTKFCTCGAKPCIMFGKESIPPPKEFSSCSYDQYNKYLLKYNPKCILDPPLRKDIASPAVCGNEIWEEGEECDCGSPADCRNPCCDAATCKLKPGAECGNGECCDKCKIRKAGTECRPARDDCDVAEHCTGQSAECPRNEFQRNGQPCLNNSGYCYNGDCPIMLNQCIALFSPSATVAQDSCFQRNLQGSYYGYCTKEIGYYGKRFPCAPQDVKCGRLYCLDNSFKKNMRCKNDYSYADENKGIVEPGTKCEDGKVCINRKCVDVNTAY
Text: (§7) The degree of the enzymatic hydrolysis of the substrate, which is proportional to the quantity of p-nitroaniline formed, can be easily determined by spectrophotometric measurement at 405 nm. The presence of an excess of substrate exerts no disturbing effect on the measurement at 405 nm. The conditions are practically the same for the other substrates carrying a p-nitroanilino group as a chromogenic group. The spectrophotometric measurement was, therefore, carried out in all cases at 405 nm.
(§8) Activity of papain and prothrombin activator, measured by means
(§9) Quantity in nm of p-nitroaniline (pNA) re-
(§10) leased within 1 minute by 0.1 milli-Anson
(§11) unit^3) of papain and 10 μg of a pure fraction
of the prothrombin activator from venom of
the snake Echis carinatus
^2) The prothrombin activator is a serine-protease which was isolated
from the venom of the snake Echis carinatus.

plasmin [5] = target: T2, plasmin; experiment: Km and vmax determination with substrate (Lineweaver-Burk), plasmin; settings: casein units per 1 substrate unit
Protocol: as §1, §2, §3, §4

papain = target: T5, papain (Carica papaya, UniProt P00784); experiment: Activity of papain measured with substrates at a constant substrate concentration
T5 construct: from tissue; host or cells: latex of the Carica papaya fruit
T5 sequence (P00784 134-345): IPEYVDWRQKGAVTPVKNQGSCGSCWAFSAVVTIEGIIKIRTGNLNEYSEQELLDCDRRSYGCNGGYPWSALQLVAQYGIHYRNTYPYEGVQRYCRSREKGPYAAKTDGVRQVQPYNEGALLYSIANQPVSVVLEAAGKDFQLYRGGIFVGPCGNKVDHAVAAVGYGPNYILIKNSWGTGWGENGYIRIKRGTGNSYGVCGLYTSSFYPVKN
Text: as §7, §8, §9, §10, §11
^1) Papain is a cysteine-protease isolated from the latex of the gree
^3) One Anson unit is the enzyme quantity which releases 1 mmole of
folin-positive amino acids (calculated as tyrosine) in 1 minute (cf. Art.

T2 sequence (P00747 581-810 limits assumed): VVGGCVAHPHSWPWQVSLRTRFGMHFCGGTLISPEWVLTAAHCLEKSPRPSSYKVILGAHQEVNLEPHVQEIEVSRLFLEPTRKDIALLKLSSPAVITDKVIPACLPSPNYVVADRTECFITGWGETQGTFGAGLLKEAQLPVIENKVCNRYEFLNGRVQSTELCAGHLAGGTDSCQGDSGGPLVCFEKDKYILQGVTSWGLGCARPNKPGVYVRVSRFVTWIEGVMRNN
T2 sequence (P00747 97-580 partner limits assumed): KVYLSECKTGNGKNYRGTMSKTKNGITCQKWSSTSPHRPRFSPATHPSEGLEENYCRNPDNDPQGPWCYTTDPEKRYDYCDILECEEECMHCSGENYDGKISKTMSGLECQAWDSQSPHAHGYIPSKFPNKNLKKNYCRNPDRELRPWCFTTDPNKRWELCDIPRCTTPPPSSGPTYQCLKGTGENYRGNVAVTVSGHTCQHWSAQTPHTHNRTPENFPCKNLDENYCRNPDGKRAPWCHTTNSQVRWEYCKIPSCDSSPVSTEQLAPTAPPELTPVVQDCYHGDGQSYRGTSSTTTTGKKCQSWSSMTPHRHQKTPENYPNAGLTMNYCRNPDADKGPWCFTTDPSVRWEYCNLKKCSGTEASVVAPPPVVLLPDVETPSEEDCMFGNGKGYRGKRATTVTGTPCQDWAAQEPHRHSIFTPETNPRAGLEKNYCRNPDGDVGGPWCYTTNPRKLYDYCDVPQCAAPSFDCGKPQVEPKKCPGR
T3 sequence (P03952 391-638 limits assumed, species assumed): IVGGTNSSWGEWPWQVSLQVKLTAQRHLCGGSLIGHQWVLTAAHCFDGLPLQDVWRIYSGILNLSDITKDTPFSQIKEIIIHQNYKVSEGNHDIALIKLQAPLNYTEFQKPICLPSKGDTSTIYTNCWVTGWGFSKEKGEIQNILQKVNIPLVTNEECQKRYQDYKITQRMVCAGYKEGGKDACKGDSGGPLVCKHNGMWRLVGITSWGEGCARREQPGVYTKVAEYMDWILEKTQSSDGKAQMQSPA
T3 sequence (P03952 20-390 partner limits assumed, species assumed): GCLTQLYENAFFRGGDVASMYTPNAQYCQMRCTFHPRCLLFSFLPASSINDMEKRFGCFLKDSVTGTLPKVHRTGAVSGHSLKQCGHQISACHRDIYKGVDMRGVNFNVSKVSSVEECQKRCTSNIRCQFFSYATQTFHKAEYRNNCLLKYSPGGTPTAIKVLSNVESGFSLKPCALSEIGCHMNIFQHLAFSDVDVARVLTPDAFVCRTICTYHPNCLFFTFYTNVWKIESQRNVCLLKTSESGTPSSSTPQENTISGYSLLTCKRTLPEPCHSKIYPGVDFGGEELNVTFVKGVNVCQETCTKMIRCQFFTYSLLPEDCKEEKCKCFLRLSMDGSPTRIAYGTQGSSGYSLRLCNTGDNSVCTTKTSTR

| Structure (SMILES) | relation between substrate units and common units (1 U = x) (trypsin) [NF] | relation between substrate units and common units (1 U = x) (thrombin) [NIH] | Quantity of p-nitroaniline (pNA), β-naphthylamine (2-NA) or 4-methoxy-β-naphthylamine (4-MeO-2-NA) released within 1 minute by one C unit of human plasmin (plasmin [1]) [nm] | Quantity of p-nitroaniline (pNA), β-naphthylamine (2-NA) or 4-methoxy-β-naphthylamine (4-MeO-2-NA) released within 1 minute by 1 BAEE unit of plasma kallikrein (plasma kallikrein [2]) [nm] | relation between substrate units and common units (1 U = x) (plasma kallikrein [3]) [BAEE U] | Quantity of p-nitroaniline (pNA) released within 1 minute by 10 μg of a pure fraction of the prothrombin activator from venom of Echis carinatus [4] [nm] | relation between substrate units and common units (1 U = x) (plasmin [5]) [C U] | Quantity of p-nitroaniline (pNA) released within 1 minute by 0.1 milli-Anson unit of papain (papain) [nm] |
| --- | --- | --- | --- | --- | --- | --- | --- | --- |
| N=C(N)NCCC[C@H](NC(=O)[C@H](Cc1ccccc1)NC(=O)[C@@H]1CCCN1C(=O)c1ccccc1)C(=O)Nc1ccc([N+](=O)[O-])cc1 [Substrate I, N^α-Bz-Pro-Phe-Arg-pNA^. HCl] (Bz-Pro-Phe-Arg-pNA) | 12000 | 117600 | 152.0 | 135.5 | 4.8 | 13.1 | 518 |  |
| N=C(N)NCCC[C@H](NC(=O)[C@H](Cc1ccccc1)NC(=O)[C@@H]1CCCN1C(=O)CCc1ccccc1)C(=O)Nc1ccc([N+](=O)[O-])cc1 [Substrate VII, N^α -3-Phenyl-propionyl-Pro-Phe-Arg-pNA.HCl] (Hydrocinnamoyl-Pro-Phe-Arg-pNA) |  |  | 144.0 | 256.0 |  |  |  | 24.9 |
